Test results taken from US5621102A, “Process for preparing enantiomerically pure xanthine derivatives” (Cell Therapeutics, Inc., priority 1995, dated 1997).

Experiments:
[1] = tested on: adhesion of activated U937 cells to HUVEC; assay: adhesion of IL-1α activated U937 cells to non-stimulated HUVEC; assay type: cell-based, human; settings: 250 μM pre-treatment of U937 cells
Description: U937 cells were stimulated with various concentrations of IL-1-α with or without the addition of 250 µM CT1501R one hour prior to addition of IL-1-α. Twelve hours later, the U937 cells were stained with BCECF and allowed to adhere to HUVEC. FIG. 22 is the relative BCECF fluorescence (+/-SD) for each of the treatment groups.
(§1) Murine peritoneal exudate cell macrophages (PEC) were isolated by perfusion of mouse peritoneum and plated into 96-well trays at 5×10^5 cells per well. Cells were stimulated with 5 μg/ml Salmonella abortus equi-derived endotoxin CLPS; Sigma Chemical Co., L-1887) or 50 ng/ml IL-1α (Genzyme; Cambridge, Mass.) with or without the addition of CT1501R added to the cultures one hour prior to addition of the stimulus. At various times thereafter, supernatants were removed and levels of either TNF-α or IL-1α were assayed using commercial 96-well microtiter immunoassay kits (Genzyme; TNF; Endogen, Boston, Mass.; IL-1α) according to manufacturer's specifications. […] After addition of […] Hanks Balanced Salt Solution (HBSS), the microtiter plate was then analyzed on a Millipore Cytofiuor fluorescent plate reader (excitation 488 nm; emission 525 nm). […]

[2] = tested on: IL-1-α release in LPS activated PEC; assay: IL-1α release from LPS activated PEC, ELISA; assay type: cell-based; settings: Mus musculus, at 24 hours after LPS, read-out: maximum inhibition of IL-1α release
Description: Cells were isolated and treated with or without 250 μM CT1501R one hour prior to activation with 10 μg/ml LPS. At various times later, supernatants were harvested and assayed for IL-1-α by ELISA (+/-SD)
as §1, with “specifications. For the adhesion studies, early passage human umbilical vein endothelial cells (HUVEC) were obtained from commercial suppliers (Clonetics, San Diego, Calif. or Cell Systems, Seattle, Wash.) and cultured in defined, Hepes buffered, serum free medium (Cell Systems, cat 301-180) supplemented with acidic FGF (Cell Systems cat 401-111).” for “specifications.”

[3] = tested on: TNF-α release from LPS-activated mouse peritoneal macrophages; assay: TNF-α release from LPS stimulated PEC, ELISA; assay type: cell-based; settings: Peritoneal macrophage
Description: R. Cells were isolated and treated with or without various concentrations of CT1501R one hour prior to LPS activation ([…]). Twenty four hours later the supernalants were collected assayed for TNF-α by ELISA (+/-SD).
Murine peritoneal exudate cell macrophages (PEC) were isolated by perfusion of mouse peritoneum and plated into 96-well trays at 5×10^5 cells per well. […] At various times thereafter, supernatants were removed and levels of either TNF-α or IL-1α were assayed using commercial 96-well microtiter immunoassay kits (Genzyme; TNF; Endogen, Boston, Mass.; IL-1α) according to manufacturer's specifications. […] 4000 cells were plated into each well of a 96-well microtiter plate and allowed to incubate for 72 hrs at 37° C. […] Either the HUVEC or U937 cells were stimulated with either LPS, IL-1α or TNF-α for 12 hrs. For the adhesion assay, U937 cells were labeled with the fluorescent viability stain, 2',7'-bis-(2-carboxyethyl)-5-(and-6)-carboxyfluorescein acetoxymethyl ester (BCECF). […] The cells were washed once with full media and 50,000 cells/well added to the HUVEC cultures. The samples were incubated at 37° C. for 30 min, inverted and centrifuged for 10 min at 400×g. After addition of […] Hanks Balanced Salt Solution (HBSS), the microtiter plate was then analyzed on a Millipore Cytofiuor fluorescent plate reader (excitation 488 nm; emission 525 nm). […]

C[C@@H](O)CCCCn1c(=O)c2c(ncn2C)n(C)c1=O [CT1501R, (R)-1-(5-hydroxyhexyl)-3,7-dimethylxanthine]
IL-1α mediated increase in adhesion of U937 cells to HUVEC [1]: effectively blocked the IL-1α mediated increase in adhesion to HUVEC to near background levels
inhibition at 250 µM [2]: ~50%
inhibition at 500 µM ([3]; 500 μM, read-out: inhibitory effects, % of the maximal LPS stimulation (1428 pg/ml)): ~40%
IC50 ([3]; drug 1 hour before LPS (10 μg/ml LPS), read-out: IC50 for TNF-α inhibition (concentration for 50% inhibition)): ~30 µM
